We go through three compounds from ChEMBL document CHEMBL6087388, “Hydrogen peroxide responsive theranostics for cancer-selective activation of DNA alkylators and real-time fluorescence monitoring in living cells” (Eur J Med Chem, 2024).

The test system of series [1] is MCF-10A. Put plainly: Induction of DNA damage in human MCF-10A cells at 10 uM incubated for 48 hrs by Alkaline comet based EVOS digital inverted microscopic analysis. The format is toxicity, cell-based.
Series [2] can be described thus: Drug localization in nucleus of human MDA-MB-468 cells assessed as accumulation of compound in nucleus at 5 uM pretreated with paraquat for 10 hrs followed by compound addition and measured after […] by SYTO 9 or Hoechst 33342 staining based confocal microscopic analysis. The format is ADME, subcellular. Conditions: mda-mb-468, 10 h; call rule not given here.
Series [3] can be described thus: Drug localization in mitochondria of human MDA-MB-468 cells assessed as blue fluorescence at 5 uM incubated for 2 hrs by MitoTracker Red CMXRos based confocal microscopic analysis. In kind it is ADME. Conditions: mda-mb-468, 2 h.
Series [4] in a line: Drug localization in mitochondria of human MDA-MB-468 cells assessed as fluorescence at 5 uM pretreated with paraquat for […] by MitoTracker Red CMXRos based confocal microscopic analysis. Conditions: time 1.5 hrs. In kind it is ADME.
Series [5] in a line: Drug localization in nucleus of human MDA-MB-468 cells assessed as accumulation of compound in nucleus at 5 uM incubated for 0.5 hrs and measured after […] by SYTO 9 or Hoechst 33342 staining based confocal microscopic analysis. In kind it is ADME, subcellular. Conditions: mda-mb-468, 2 h.
A short description of series [6]: Drug localization in mitochondria of human MDA-MB-468 cells assessed as accumulation of compound in mitochondria at 5 uM incubated for 0.5 hrs and measured after […] by MitoTracker Red CMXRos based confocal microscopic analysis. The format is ADME. Conditions: mda-mb-468, 2 h.
Series [7] has as its system MCF-10A. Put plainly: Induction of DNA damage in human MCF-10A cells at 5 uM incubated for 48 hrs by Alkaline comet based EVOS digital inverted microscopic analysis. In kind it is toxicity, cell-based.
A short description of series [8]: Photophysical property of the compound assessed as relative quantum yield at 2 uM in PBS and DMSO relative to quinine sulfate. In kind it is physicochemical. Conditions: buffer.

On to `CC1(C)OB(c2ccc3cc(-n4cc(CCCCCCCCCOCc5cc(N(CCCl)CCCl)ccc5B5OC(C)(C)C(C)(C)O5)nn4)c(=O)oc3c2)OC1(C)C`, for which the Activity entry in the series on MCF-10A [1] is given as “Non-toxic”. The Drug uptake entry is “Not_active” in series [2]; “Not_active” in series [3]; “Active” in series [4]; “Not_active” in series [5]; “Active” in series [6].

`CC1(C)OB(c2ccc3c(c2)Oc2cc(B4OC(C)(C)C(C)(C)O4)ccc2C32OC(=O)c3cc(-n4cc(CCCCCCCCCOCc5cc(N(CCCl)CCCl)ccc5B5OC(C)(C)C(C)(C)O5)nn4)ccc32)OC1(C)C`: the Drug uptake entry in series [2] was “Not_active”; in series [3], “Not_active”; in series [4], “Active”; in series [5], “Not_active”; in series [6] it was “Active”.

As to `CC1(C)OB(c2ccc(N(CCCl)CCCl)cc2COCc2cn(-c3cc4ccc(O)cc4oc3=O)nn2)OC1(C)C`, the results for the Drug uptake entry in series [3] and in series [5] were “Active” and “Not_active”, respectively. Also, the Activity result in the series on MCF-10A [7] is reported as “Non-toxic”; in series [8], 0.17.
